Experimental data taken from US5489524A, “Chimeric protein that has a human Rho motif and deoxyribonuclease activity” (The United States of America as represented by the …, priority 1992, dated 1996).

Tested on: Mammalian Endo-Exonuclease
Assay: ss- and ds-DNase activities of the purified endo-exonuclease with divalent metal ions, NaCl, ATP or GTP (release of acid-soluble radioactivity from 32P-labeled pBR322 DNA)
Format: biochemical, Monkey
Details: for Activity % ds-DNase / Activity % ss-DNase: 37° C.
Protocol: The assay mixture contained 100 mM Tris-HCl pH 8.0, 10 mM MgCl2, and 17 μg of ^32 P-labelled linearized plasmid DNA. One unit of activity is defined as the amount of deoxyribonuclease which renders 1 μg of DNA acid-soluble in 30 min at 37° C. The plasmid was labeled using a random oligo-priming kit (Pharmacia Fine Chemical).
The ratios are calculated with respect to the activity of 10 mM Mg^2+ (100%).
The nuclease activities of putative recombination nucleases of E. coli are known to be affected by ATP. Moreover S. cerevisiae endo-exonuclease is believed to contain a region homologous to GTP-binding sites. The effects of ATP and GTP on the purified mammalian endo-exonuclease were therefore chosen to study.

[1] = 0.1 mM nucleotide added, 10 mM Mg^2+
[2] = 1.0 mM nucleotide added, 10 mM Mg^2+
[3] = metal ion 0.5 mM, activity with 10 mM Mg^2+ = 100%
[4] = metal ion 5.0 mM, activity with 10 mM Mg^2+ = 100%
[5] = metal ion 10.0 mM, reference = 100%
[6] = metal ion […], activity with 10 mM Mg^2+ = 100%
[7] = metal ion 1.0 mM, activity with 10 mM Mg^2+ = 100%
[8] = metal ion 0.1 mM, activity with 10 mM Mg^2+ = 100%

## Nc1nc2c(ncn2[C@@H]2O[C@H](COP(=O)(O)OP(=O)(O)OP(=O)(O)O)[C@@H](O)[C@H]2O)c(=O)[nH]1 [GTP]
0.1 mM
  effect on ds-DNase activity: slight enhancement of ds-DNase activity
[1]
  Activity % ds-DNase: 112%
  Activity % ss-DNase: 85%
[2]
  Activity % ds-DNase: 73%
  Activity % ss-DNase: 68%
0.1-1.0 mM
  effect on ss-DNase and ds-DNase activities: slightly inhibited

## [Mg+2] [Mg^2+]
  optimal concentration for ds-DNase: 2.5 mM
  optimal concentration for ss-DNase: 0.5 mM
Metal ion 0.5 mM
  Ratio of Activities for ss/ds-DNase: 2.2
[3]
  Activity % ds-DNase: 128%
  Activity % ss-DNase: 217%
[4]
  Activity % ds-DNase: 120%
  Activity % ss-DNase: 173%
Metal ion 10.0 mM
  Ratio of Activities for ss/ds-DNase: 1.3
[5]
  Activity % ds-DNase: 100%
  Activity % ss-DNase: 100%
[6]
  Activity % ds-DNase: 168%
  Activity % ss-DNase: 203%

## [Mn+2] [Mn^2+]
  ability to replace Mg^2+ as cofactor: partially substitute for Mg^2+
  concentration with inhibitory effects on the nuclease activities: ≥ 2.0 mM
Metal ion 0.5 mM
  Ratio of Activities for ss/ds-DNase: 1.7
[3]
  Activity % ds-DNase: 195%
  Activity % ss-DNase: 258%
Metal ion 1.0 mM
  Ratio of Activities for ss/ds-DNase: 1.4
[7]
  Activity % ds-DNase: 212%
  Activity % ss-DNase: 215%
Metal ion 2.0 mM, activity with 10 mM Mg^2+ = 100%
  Activity % ss-DNase: 0%
[4]
  Activity % ss-DNase: 0%
[6]
  Activity % ds-DNase: 0%
  Activity % ss-DNase: 0%

## [Zn+2] [Zn^2+]
  ability to replace Mg^2+ as cofactor: partially substitute for Mg^2+
  concentration with inhibitory effects on the nuclease activities: ≥ 0.25 mM
[8]
  Activity % ds-DNase: 70%
  Activity % ss-DNase: 75%
[3]
  Activity % ds-DNase: 0%
  Activity % ss-DNase: 0%
[7]
  Activity % ss-DNase: 0%
[6]
  Activity % ds-DNase: 0%
  Activity % ss-DNase: 0%
